The source of these data is ChEMBL document CHEMBL1649478, “Comparison of tigecycline and vancomycin for treatment of experimental foreign-body infection due to methicillin-resistant Staphylococcus aureus” (Antimicrob Agents Chemother, 2009).

The subject of data set [1] is Staphylococcus aureus. As to the kind of experiment: Antibacterial activity against methicillin-resistant Staphylococcus aureus MRG3 by broth microdilution method. The class given is functional. (Dilution methods test growth across graded concentrations, often in twofold steps.)
Data set [2] is described as follows: Drug level in body fluid of Wistar rat infected with methicillin-resistant Staphylococcus aureus MRG3 at 7 mg/kg, sc BID measured on day 4 postdose. It is filed as ADME, organism-based. Further details: dose 7 mg/kg, route subcutaneous. To be noted: in vivo.
A short description of data set [3]: Drug level in body fluid of Wistar rat infected with methicillin-resistant Staphylococcus aureus MRG3 at 7 mg/kg, sc BID measured on day 7 postdose. Further details: dose 7 mg/kg, route subcutaneous. It is filed as ADME, organism-based. To be noted: in vivo.
The next data set relates to Plasma. Put plainly: Drug level in plasma of Wistar rat infected with methicillin-resistant Staphylococcus aureus MRG3 at 7 mg/kg, sc BID measured on day 4 postdose. It is filed as ADME, organism-based. More on the design: dose 7 mg/kg, route subcutaneous. To be noted: in vivo.
For data set [4], the system named is Staphylococcus aureus. As to the kind of experiment: Antibacterial activity against methicillin-resistant Staphylococcus aureus MRG3 assessed as log decrease in bacterial count at 1 to 4 ug/ml by broth microdilution method. It is filed as functional.
Data set [5] deals with Staphylococcus aureus. Put plainly: Antibacterial activity against methicillin-resistant Staphylococcus aureus MRG3 infected in Wistar rat assessed as bacterial load in body fluid at 7 mg/kg, sc BID after 1 day. As to conditions: route subcutaneous. The class given is functional.
For data set [6], the system named is Staphylococcus aureus. Put plainly: Antibacterial activity against methicillin-resistant Staphylococcus aureus MRG3 infected in Wistar rat assessed as decrease in bacterial load in body fluid at 7 mg/kg, sc BID after 8 days. To be noted: route subcutaneous. The class given is functional.
Data set [7] concerns Staphylococcus aureus. Put plainly: Bactericidal activity against methicillin-resistant Staphylococcus aureus MRG3 by broth microdilution method.
A short description of data set [8]: Cmax in body fluid of Wistar rat infected with methicillin-resistant Staphylococcus aureus MRG3 at 50 mg/kg, sc measured on day 4 postdose. It is filed as ADME, organism-based. Further details: dose 50 mg/kg, route subcutaneous.
A short description of data set [9]: Cmin in body fluid of Wistar rat infected with methicillin-resistant Staphylococcus aureus MRG3 at 50 mg/kg, sc measured on day 4 postdose. It is filed as ADME, organism-based. Further details: dose 50 mg/kg, route subcutaneous. To be noted: in vivo.
For data set [10], the system named is Staphylococcus aureus. Put plainly: Antibacterial activity against methicillin-resistant Staphylococcus aureus MRG3 infected in Wistar rat assessed as bacterial load in body fluid at 50 mg/kg, sc after 1 day. To be noted: route subcutaneous. The class given is functional.
The test system of data set [11] is Staphylococcus aureus. As to the kind of experiment: Antibacterial activity against methicillin-resistant Staphylococcus aureus MRG3 infected in Wistar rat assessed as decrease in bacterial load in body fluid at 50 mg/kg, sc after 8 days. It is filed as functional. To be noted: route subcutaneous.

Each structure is given as a SMILES string. Values after ≈ are worked out from the molar mass of the structure shown.

Regarding `CN(C)c1cc(NC(=O)CNC(C)(C)C)c(O)c2c1C[C@H]1C[C@H]3[C@H](N(C)C)C(O)=C(C(N)=O)C(=O)[C@@]3(O)C(O)=C1C2=O` [TIGECYCLINE], in the data set with Staphylococcus aureus [1], the MIC turned out to be 0.5 µg/mL (≈ 0.854 µM). Further, the Drug uptake in [2] was found to be 0.39 µg/mL; in data set [3], 0.33 µg/mL; in the data set on Plasma, 1.87 µg/mL. In addition, the log10CFU/ml in the data set with Staphylococcus aureus [4] was determined as 2; in the data set on Staphylococcus aureus [5], 6.92; with Staphylococcus aureus [6] it was 0.62.
With `CN[C@H](CC(C)C)C(=O)N[C@H]1C(=O)N[C@@H](CC(N)=O)C(=O)N[C@H]2C(=O)N[C@H]3C(=O)N[C@H](C(=O)N[C@H](C(=O)O)c4cc(O)cc(O)c4-c4cc3ccc4O)[C@H](O)c3ccc(c(Cl)c3)Oc3cc2cc(c3O[C@@H]2O[C@H](CO)[C@@H](O)[C@H](O)[C@H]2O[C@H]2C[C@](C)(N)[C@H](O)[C@H](C)O2)Oc2ccc(cc2Cl)[C@H]1O` [VANCOMYCIN], in the data set on Staphylococcus aureus [7], the MBC was 2 µg/mL (≈ 1.38 µM). In [8], this compound yielded a Cmax of 12000 ng/mL. This compound also showed a Cmin in data set [9] of 2000 ng/mL. In addition, the log10CFU/ml in the data set on Staphylococcus aureus [10] was found to be 6.7; in the data set on Staphylococcus aureus [11], 0.76.

In general, MIC refers to the lowest concentration found to suppress growth. The term MBC denotes the smallest concentration meeting the test's criterion for killing. Lower therefore signals greater bactericidal potency. One may read the Cmax as the highest concentration seen after dosing.
